Experimental data reported in publication PMC5564600 (Oncotarget, 2017).

What was measured:
Assay in all cases: biochemical
Format in all cases: binding
panel of 442 kinases [1] = target: T1, panel of 442 kinases (Homo sapiens, UniProt P21802); conditions: FGFR2; for remaining activity at 1 µM: read-out: % of control at 1 µM
T1 construct: purchased Ambit Biosciences (scanMAXX KINOMEscan)

panel of 442 kinases [2] = target: T2, panel of 442 kinases (Homo sapiens, UniProt P43405); conditions: kinase SYK; for remaining activity at 1 µM: read-out: SYK (% of control at 1 µM)
T2 construct: purchased Ambit Biosciences (scanMAXX KINOMEscan)

panel of 442 kinases [3] = target: T3, panel of 442 kinases (Homo sapiens, UniProt P53779); conditions: kinase JNK3; for remaining activity at 1 µM: read-out: % of control at 1 µM
T3 construct: purchased Ambit Biosciences (scanMAXX KINOMEscan)

panel of 442 kinases [4] = target: T4, panel of 442 kinases (Homo sapiens, UniProt Q07912); conditions: kinase TNK2; for remaining activity at 1 µM: read-out: TNK2 (% of control at 1 µM)
T4 construct: purchased Ambit Biosciences (scanMAXX KINOMEscan)

panel of 442 kinases [5] = target: T5, panel of 442 kinases (Homo sapiens, UniProt Q08345); conditions: DDR1; for remaining activity at 1 µM: read-out: % of control at 1 µM
T5 construct: purchased Ambit Biosciences (scanMAXX KINOMEscan)

panel of 442 kinases [6] = target: T6, panel of 442 kinases (Homo sapiens, UniProt Q13470); conditions: kinase TNK1; for remaining activity at 1 µM: read-out: TNK1 (% of control at 1 µM)
T6 construct: purchased Ambit Biosciences (scanMAXX KINOMEscan)
T6 sequence (Q13470 1-666): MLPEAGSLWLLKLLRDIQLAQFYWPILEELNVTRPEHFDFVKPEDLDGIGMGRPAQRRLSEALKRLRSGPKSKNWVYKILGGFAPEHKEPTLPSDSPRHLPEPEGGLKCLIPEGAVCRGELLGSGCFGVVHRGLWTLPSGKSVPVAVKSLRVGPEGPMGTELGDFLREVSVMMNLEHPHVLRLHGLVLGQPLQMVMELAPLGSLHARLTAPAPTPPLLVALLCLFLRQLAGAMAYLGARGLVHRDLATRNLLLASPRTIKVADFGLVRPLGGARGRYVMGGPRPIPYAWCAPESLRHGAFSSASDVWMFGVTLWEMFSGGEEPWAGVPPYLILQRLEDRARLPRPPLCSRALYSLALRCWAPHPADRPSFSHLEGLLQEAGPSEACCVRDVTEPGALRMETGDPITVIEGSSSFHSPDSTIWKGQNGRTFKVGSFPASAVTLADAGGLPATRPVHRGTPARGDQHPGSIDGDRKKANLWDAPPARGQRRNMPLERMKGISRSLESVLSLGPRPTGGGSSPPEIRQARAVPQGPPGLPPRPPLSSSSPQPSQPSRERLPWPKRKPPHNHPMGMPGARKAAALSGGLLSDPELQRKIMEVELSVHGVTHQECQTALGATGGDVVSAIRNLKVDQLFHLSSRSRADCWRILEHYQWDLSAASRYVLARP

panel of 442 kinases [7] = target: T7, panel of 442 kinases (Homo sapiens, UniProt Q14012); conditions: CAMK1; for remaining activity at 1 µM: read-out: % of control at 1 µM
T7 construct: purchased Ambit Biosciences (scanMAXX KINOMEscan)

panel of 442 kinases [8] = target: T8, panel of 442 kinases (Homo sapiens, UniProt Q6PHR2); conditions: kinase ULK3; for remaining activity at 1 µM: read-out: ULK3 (% of control at 1 µM)
T8 construct: purchased Ambit Biosciences (scanMAXX KINOMEscan)
T8 sequence (Q6PHR2 1-472): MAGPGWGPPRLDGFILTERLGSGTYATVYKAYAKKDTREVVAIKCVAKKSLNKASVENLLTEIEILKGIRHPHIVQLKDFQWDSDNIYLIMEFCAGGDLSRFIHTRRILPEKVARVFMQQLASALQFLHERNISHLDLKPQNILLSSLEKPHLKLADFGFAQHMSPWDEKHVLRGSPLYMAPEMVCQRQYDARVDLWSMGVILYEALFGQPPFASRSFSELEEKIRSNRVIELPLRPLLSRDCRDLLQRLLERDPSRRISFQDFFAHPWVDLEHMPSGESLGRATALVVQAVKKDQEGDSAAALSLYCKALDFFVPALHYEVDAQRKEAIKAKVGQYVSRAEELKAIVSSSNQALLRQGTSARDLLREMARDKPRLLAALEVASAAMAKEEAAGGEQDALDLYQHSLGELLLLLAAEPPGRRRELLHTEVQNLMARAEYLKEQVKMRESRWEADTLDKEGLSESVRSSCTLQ

panel of 442 kinases [9] = target: T9, panel of 442 kinases (Homo sapiens, UniProt Q9H422); conditions: kinase HIPK3; for remaining activity at 1 µM: read-out: % of control at 1 µM
T9 construct: purchased Ambit Biosciences (scanMAXX KINOMEscan)

panel of 442 kinases [10] = target: T10, panel of 442 kinases (Homo sapiens, UniProt Q9NY57); conditions: kinase YANK2; for remaining activity at 1 µM: read-out: YANK2 (% of control at 1 µM)
T10 construct: purchased Ambit Biosciences (scanMAXX KINOMEscan)

panel of 442 kinases [11] = target: T11, panel of 442 kinases (Homo sapiens, UniProt Q9UQ88); conditions: CDC2L2; for remaining activity at 1 µM: read-out: % of control at 1 µM
T11 construct: purchased Ambit Biosciences (scanMAXX KINOMEscan)
T11 sequence (Q9UQ88 1-783): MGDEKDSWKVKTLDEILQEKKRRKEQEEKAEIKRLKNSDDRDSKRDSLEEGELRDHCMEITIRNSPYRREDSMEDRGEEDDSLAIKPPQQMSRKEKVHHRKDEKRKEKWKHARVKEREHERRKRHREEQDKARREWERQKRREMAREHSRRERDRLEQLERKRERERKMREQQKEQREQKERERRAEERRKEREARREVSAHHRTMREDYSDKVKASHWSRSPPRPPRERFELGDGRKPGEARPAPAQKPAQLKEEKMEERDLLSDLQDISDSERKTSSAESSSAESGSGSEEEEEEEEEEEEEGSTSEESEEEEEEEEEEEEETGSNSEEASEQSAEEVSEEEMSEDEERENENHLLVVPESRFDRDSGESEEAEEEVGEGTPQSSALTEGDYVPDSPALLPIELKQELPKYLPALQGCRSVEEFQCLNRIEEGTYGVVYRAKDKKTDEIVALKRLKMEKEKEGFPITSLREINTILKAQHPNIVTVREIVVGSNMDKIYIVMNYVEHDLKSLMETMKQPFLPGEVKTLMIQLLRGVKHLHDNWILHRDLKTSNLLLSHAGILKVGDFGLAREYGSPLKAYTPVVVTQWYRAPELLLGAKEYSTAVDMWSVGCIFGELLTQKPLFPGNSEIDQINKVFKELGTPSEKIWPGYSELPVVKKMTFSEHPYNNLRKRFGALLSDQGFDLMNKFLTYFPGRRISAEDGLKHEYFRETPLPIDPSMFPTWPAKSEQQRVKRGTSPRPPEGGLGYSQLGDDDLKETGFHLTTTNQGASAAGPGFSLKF

panel of 442 kinases [12] = target: T12, panel of 442 kinases (Homo sapiens, UniProt Q9Y2H9); conditions: kinase MAST1; for remaining activity at 1 µM: read-out: % of control at 1 µM
T12 construct: purchased Ambit Biosciences (scanMAXX KINOMEscan)

[13] = 10 µM, read-out: % of control at 10 µM

T1 sequence (P21802 22-821): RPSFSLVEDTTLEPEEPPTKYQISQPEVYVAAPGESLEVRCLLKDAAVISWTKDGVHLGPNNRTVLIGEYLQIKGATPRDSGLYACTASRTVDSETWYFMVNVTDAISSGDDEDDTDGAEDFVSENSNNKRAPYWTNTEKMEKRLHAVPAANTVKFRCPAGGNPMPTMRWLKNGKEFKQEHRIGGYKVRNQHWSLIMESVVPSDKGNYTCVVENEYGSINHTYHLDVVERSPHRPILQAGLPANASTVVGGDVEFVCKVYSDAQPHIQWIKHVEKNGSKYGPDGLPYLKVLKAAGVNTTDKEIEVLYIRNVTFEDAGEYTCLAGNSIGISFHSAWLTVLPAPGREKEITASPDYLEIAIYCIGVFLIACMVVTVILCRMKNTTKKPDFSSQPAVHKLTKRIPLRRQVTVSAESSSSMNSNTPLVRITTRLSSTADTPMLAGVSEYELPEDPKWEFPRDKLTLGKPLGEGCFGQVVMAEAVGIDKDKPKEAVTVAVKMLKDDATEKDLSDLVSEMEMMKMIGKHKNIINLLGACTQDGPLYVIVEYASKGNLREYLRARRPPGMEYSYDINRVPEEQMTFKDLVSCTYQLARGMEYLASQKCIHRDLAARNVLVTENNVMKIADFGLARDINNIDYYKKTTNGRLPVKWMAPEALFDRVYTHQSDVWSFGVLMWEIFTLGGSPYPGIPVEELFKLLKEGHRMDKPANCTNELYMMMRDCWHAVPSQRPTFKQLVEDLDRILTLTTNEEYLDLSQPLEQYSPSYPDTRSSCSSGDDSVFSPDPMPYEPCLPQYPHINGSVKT
T9 sequence (Q9H422 whole entry): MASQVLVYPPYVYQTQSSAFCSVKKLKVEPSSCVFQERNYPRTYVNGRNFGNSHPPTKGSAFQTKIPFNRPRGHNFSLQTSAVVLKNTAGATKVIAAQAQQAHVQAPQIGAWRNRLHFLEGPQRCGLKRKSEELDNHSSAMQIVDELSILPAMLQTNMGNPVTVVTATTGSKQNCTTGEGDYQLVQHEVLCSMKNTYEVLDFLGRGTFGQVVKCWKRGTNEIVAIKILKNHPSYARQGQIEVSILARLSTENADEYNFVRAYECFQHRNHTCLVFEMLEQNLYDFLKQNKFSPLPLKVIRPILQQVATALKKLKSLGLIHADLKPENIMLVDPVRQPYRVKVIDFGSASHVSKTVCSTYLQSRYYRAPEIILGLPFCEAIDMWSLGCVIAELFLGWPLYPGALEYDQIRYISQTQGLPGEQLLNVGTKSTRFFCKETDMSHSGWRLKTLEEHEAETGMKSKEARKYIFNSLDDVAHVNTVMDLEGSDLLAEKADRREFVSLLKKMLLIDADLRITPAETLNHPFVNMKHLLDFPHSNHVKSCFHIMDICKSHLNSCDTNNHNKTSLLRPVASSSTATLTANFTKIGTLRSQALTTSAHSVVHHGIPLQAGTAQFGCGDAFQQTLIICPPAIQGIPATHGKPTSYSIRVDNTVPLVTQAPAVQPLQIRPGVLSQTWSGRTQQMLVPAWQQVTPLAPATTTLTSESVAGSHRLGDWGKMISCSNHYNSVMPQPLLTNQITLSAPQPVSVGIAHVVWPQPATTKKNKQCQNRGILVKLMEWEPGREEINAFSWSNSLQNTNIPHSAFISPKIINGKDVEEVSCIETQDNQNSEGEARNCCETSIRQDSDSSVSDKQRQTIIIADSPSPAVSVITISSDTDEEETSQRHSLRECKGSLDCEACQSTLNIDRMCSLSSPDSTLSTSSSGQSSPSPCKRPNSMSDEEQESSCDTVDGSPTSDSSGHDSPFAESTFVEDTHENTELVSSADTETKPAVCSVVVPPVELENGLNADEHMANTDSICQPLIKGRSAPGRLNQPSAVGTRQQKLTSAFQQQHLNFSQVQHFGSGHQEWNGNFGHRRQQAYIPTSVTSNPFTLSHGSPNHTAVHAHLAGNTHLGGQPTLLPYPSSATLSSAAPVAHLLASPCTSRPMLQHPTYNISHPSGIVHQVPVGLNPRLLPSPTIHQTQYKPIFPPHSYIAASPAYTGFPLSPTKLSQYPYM
T3 sequence (P53779 whole entry): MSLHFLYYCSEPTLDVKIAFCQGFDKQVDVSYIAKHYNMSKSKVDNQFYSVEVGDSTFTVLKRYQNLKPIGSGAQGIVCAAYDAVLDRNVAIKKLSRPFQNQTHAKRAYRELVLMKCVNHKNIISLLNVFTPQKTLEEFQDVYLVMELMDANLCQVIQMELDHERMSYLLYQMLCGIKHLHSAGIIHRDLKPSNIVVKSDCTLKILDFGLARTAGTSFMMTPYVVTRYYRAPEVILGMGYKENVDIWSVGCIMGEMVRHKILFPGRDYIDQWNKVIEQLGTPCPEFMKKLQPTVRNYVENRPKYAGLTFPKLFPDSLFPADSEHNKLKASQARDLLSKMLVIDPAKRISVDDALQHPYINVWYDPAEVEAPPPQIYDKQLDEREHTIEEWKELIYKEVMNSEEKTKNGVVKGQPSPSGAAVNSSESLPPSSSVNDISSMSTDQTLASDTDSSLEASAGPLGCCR
T4 sequence (Q07912 whole entry): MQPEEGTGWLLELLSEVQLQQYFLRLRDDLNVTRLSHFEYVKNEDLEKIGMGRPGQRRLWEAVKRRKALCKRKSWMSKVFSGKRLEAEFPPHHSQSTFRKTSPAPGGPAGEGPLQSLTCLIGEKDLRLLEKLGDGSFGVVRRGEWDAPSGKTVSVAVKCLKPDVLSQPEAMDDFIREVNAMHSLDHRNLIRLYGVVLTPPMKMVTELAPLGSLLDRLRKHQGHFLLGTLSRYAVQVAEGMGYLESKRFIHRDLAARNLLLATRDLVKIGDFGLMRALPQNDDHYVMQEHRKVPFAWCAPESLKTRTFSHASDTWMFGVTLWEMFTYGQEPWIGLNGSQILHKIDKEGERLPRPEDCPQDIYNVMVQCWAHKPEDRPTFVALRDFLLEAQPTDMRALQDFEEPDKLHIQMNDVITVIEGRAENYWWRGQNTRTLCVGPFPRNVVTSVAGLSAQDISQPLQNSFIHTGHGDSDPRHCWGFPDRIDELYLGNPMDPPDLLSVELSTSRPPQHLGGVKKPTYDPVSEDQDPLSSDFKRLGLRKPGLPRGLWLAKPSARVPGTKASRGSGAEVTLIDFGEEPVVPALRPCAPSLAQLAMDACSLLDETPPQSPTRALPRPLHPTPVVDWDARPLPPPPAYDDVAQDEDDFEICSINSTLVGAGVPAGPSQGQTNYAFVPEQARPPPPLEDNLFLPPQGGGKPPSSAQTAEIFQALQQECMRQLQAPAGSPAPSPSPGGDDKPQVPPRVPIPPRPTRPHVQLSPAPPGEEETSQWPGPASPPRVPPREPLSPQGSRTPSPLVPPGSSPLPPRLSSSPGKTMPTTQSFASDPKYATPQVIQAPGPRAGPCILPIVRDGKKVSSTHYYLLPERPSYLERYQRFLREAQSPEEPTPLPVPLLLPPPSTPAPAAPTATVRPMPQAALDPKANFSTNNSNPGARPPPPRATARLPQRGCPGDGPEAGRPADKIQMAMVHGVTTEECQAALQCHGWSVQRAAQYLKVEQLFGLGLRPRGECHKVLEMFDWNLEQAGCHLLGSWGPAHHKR
T10 sequence (Q9NY57 whole entry): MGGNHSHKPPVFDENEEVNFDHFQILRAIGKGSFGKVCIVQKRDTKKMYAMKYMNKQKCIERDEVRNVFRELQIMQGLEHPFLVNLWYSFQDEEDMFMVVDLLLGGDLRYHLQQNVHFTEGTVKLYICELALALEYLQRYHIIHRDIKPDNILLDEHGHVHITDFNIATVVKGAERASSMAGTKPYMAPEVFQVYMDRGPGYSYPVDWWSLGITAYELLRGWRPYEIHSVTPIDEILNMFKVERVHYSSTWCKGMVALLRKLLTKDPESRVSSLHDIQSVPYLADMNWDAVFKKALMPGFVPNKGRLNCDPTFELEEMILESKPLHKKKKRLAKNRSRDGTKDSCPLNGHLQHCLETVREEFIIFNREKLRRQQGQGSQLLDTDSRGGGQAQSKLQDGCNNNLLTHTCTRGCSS
T5 sequence (Q08345 19-913): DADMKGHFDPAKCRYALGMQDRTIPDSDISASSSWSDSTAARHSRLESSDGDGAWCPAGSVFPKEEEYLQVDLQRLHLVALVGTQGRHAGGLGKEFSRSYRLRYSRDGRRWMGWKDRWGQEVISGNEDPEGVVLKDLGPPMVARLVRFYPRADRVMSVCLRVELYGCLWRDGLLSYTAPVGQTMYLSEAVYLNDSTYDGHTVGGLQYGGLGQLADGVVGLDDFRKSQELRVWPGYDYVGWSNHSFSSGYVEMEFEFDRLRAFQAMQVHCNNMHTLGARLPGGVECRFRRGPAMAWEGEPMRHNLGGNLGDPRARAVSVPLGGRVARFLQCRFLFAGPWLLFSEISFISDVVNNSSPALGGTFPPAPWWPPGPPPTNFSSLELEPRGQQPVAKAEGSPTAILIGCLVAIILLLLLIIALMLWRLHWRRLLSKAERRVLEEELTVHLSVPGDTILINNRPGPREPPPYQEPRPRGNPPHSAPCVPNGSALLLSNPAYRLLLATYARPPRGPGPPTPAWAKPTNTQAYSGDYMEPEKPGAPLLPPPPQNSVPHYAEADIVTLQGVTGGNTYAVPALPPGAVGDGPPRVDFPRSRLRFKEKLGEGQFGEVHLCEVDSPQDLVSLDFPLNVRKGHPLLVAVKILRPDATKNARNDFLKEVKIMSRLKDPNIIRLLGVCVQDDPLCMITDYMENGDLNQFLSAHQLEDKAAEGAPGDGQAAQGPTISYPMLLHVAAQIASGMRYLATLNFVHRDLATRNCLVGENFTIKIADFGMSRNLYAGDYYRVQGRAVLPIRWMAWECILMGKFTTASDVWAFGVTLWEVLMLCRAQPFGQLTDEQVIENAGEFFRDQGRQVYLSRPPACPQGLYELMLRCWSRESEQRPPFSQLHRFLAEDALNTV

Row | SMILES | remaining activity at 1 µM (panel of 442 kinases [1]) [%] | remaining activity at 1 µM (panel of 442 kinases [2]) [%] | remaining activity at 1 µM (panel of 442 kinases [3]) [%] | remaining activity at 1 µM (panel of 442 kinases [4]) [%] | remaining activity at 1 µM (panel of 442 kinases [5]) [%] | remaining activity at 1 µM (panel of 442 kinases [6]) [%] | remaining activity at 1 µM (panel of 442 kinases [7]) [%] | remaining activity at 1 µM (panel of 442 kinases [8]) [%] | remaining activity at 1 µM (panel of 442 kinases [9]) [%] | remaining activity at 1 µM (panel of 442 kinases [10]) [%] | remaining activity at 1 µM (panel of 442 kinases [11]) [%] | remaining activity at 1 µM (panel of 442 kinases [12]) [%] | also measured
1 | Nc1cc(C(F)(F)F)c(-c2cc(N3CCOCC3)nc(N3CCOCC3)n2)cn1 [Buparlisib] | 98 | 98 | 100 | 100 | 100 | 100 | 100 | 100 | 92 | 100 | 100 | 53 | remaining activity at 10 µM (panel of 442 kinases [1]; [13]): 100%; remaining activity at 10 µM (panel of 442 kinases [2]; 10 µM, read-out: SYK (% of control at 10 µM)): 100%; remaining activity at 10 µM (panel of 442 kinases [3]; [13]): 100%; remaining activity at 10 µM (panel of 442 kinases [4]; 10 µM, read-out: TNK2 (% of control at 10 µM)): 100%; remaining activity at 10 µM (panel of 442 kinases [5]; [13]): 92%; remaining activity at 10 µM (panel of 442 kinases [6]; 10 µM, read-out: TNK1 (% of control at 10 µM)): 100%; remaining activity at 10 µM (panel of 442 kinases [7]; [13]): 100%; remaining activity at 10 µM (panel of 442 kinases [8]; 10 µM, read-out: ULK3 (% of control at 10 µM)): 100%; remaining activity at 10 µM (panel of 442 kinases [9]; [13]): 98%; remaining activity at 10 µM (panel of 442 kinases [10]; 10 µM, read-out: YANK2 (% of control at 10 µM)): 100%; remaining activity at 10 µM (panel of 442 kinases [11]; [13]): 99%; remaining activity at 10 µM (panel of 442 kinases [12]; [13]): 73%
2 | COc1ncc(-c2ccc3nccc(-c4ccnnc4)c3c2)cc1NS(=O)(=O)c1ccc(F)cc1F [Omipalisib] | 100 | 100 | 90 | 100 | 100 | 100 | 100 | 100 | 88 | 100 | 100 | 100 | 
3 | FC(F)c1nc2ccccc2n1-c1nc(N2CCOCC2)nc(N2CCOCC2)n1 [ZSTK474, 2-(difluoromethyl)-1-[4,6-di(4-morpholinyl)-1,3,5-triazin-2-yl]-1H-benzimidazole] | 100 | 100 | 100 | 100 | 95 | 86 | 100 | 97 | 89 | 100 | 100 | 100 | 
4 | Cn1c(=O)n(-c2ccc(C(C)(C)C#N)cc2)c2c3cc(-c4cnc5ccccc5c4)ccc3ncc21 [Dactolisib, 2-methyl-2-[4-(3-methyl-2-oxo-8-quinolin-3-yl-2,3-dihydroimidazo[4,5-c]quinolin-1-yl)-phenyl] propionitrile] | 100 | 100 | 100 | 98 | 100 | 88 | 78 | 100 | 94 | 96 | 89 | 100 | 
